We go through five molecules from US20030203899A1, “Drugs for incontinence” (priority 2000, published 2003).

The assay concerns strips of urinary guinea-pig bladder contracted with carbacol. As to the kind of experiment: Inhibition of bladder contraction: relaxation of guinea-pig urinary bladder strips contracted with carbacol, in vitro. It is filed as cell-based. Particulars: strips contracted with carbacol 10^−6 M, placebo = 100. From the text:
The activity in the urinary incontinence of the compounds according to the present invention has been evaluated in an experimental model of inhibition of the bladder contraction.
The degree of the relaxation induced in the urinary bladder is a measure of the inhibitory action of the urinary incontinence of the drugs described in the present application.
Guinea-pigs of male sex having an average weight equal to 300-500 g were sacrificed and bled. The urinary bladder was removed and prepared for determining the myorelaxing activity in vitro, according to the method described by L. Nilvenbrant, Eur. J. Pharmacol. 327,195-207, 1997.
The obtained tissue strips were contracted with carbacol 10^−6 M in phisiological solution and the relaxation was determined in the presence of the compounds indicated in Table 1 at the concentrations mentioned therein. The 2-(acetyloxy) benzoic acid 6-(nitroxymethyl)-2-methylpyridyl ester hydrochloride was prepared according to Example 1 of patent application PCT/EP 00/01454 (NCX 4050).

Where a name gives a salt, the structure may show the parent alone.

Turning to `CC(=O)Oc1ccccc1C(=O)Oc1ccc(CO[N+](=O)[O-])nc1C.Cl` [NCX 4050, 2-(acetyloxy) benzoic acid 6-(nitroxymethyl)-2-methylpyridyl ester hydrochloride], the “Bladder strip contraction, % of placebo” value (compound 3 × 10 − 5 M) is reported as 71%.

As for oxybutynin nitrate salt, the “Bladder strip contraction, % of placebo” value (compound 10^−6 M) was determined as 0%. For the molecule `CCN(CC)CC#CCOC(=O)C(O)(c1ccccc1)C1CCCCC1` (centres unmarked) [Oxybutynin Hydrochloride (Comp), oxybutynin hydrochloride, reference compound], the “Bladder strip contraction, % of placebo” value (compound 10^−6 M) stood at 30%. For the molecule `CCCc1nn(C)c2c(=O)[nH]c(-c3cc(S(=O)(=O)N4CCN(C)CC4)ccc3OCC)nc12` [Sildenafil Citrate, sildenafil citrate, reference compound], for the setting “compound 3 × 10 − 5 M”, the “Bladder strip contraction, % of placebo” value is on record as 52%.

Take sildenafil nitrate salt: for the setting “compound 3 × 10 − 5 M”, the “Bladder strip contraction, % of placebo” value worked out at 31%.
